Experimental data published in EP0366632A1, “Alternative energy substrates” (priority 1988, dated 1990).

Columns and labels:
[1] = tested on: Asperg. niger ATCC 16404 (mould); assay: Microorganism count in 2% ester emulsions (Example 12, Table 1); format: cell-based; details: 2% emulsion, phosphate buffer pH=7.0, +37°C, Additive/ml 7943
Protocol: (§1) In addition to ester, the emulsions also comprised egg-yolk phospholipid 1,2% and sterile water. The emulsions were prepared aseptically, by emulsifying sterile-filtered ester with a sterilized dispersion of egg-yolk phospholipids. Aliquots of these emulsions were diluted with a phosphate buffer (0.01 M, pH=7.0) in the proportions of 1 and 10 respectively, so as to obtain 2-percent emulsions. Various microorganisms according to Table 1 below were added to these emulsions. The samples were then incubated at +37°C for 20 hours. Counting of the number of microorganisms was started after 2 and 20 hours, in the manner described in microbiological literature. Checks were run on a pure phosphate buffer with additives of the same microorganisms as earlier, in parallel with the aforesaid experiments, while checks were run in Tryptone Soya broth (TSB) with additions of the same microorganisms, in order to ascertain whether or not the microorganisms could survive, i.e. could grow under the ideal conditions. […]

[2] = tested on: Cand. albicans ATCC 10231 (yeast); assay: as above; format: cell-based; details: 2% emulsion, phosphate buffer pH=7.0, +37°C, Additive/ml 6310
Protocol: as §1

[3] = tested on: Klebs. pneum. ATCC 25955; assay: as above; format: cell-based; details: 2% emulsion, phosphate buffer pH=7.0, +37°C, Additive/ml 1995
Protocol: as §1

[4] = tested on: Penicillium sp. (mould); assay: as above; format: cell-based; details: 2% emulsion, phosphate buffer pH=7.0, +37°C, Additive/ml 3162
Protocol: as §1

[5] = tested on: Staf. aureus ATCC 6535; assay: as above; format: cell-based; details: 2% emulsion, phosphate buffer pH=7.0, +37°C, Additive/ml 5012
Protocol: as §1

[6] = tested on: Staf. epiderm.; assay: as above; format: cell-based; details: 2% emulsion, phosphate buffer pH=7.0, +37°C, Additive/ml 6310
Protocol: as §1

[7] = tested on: Ulocladium sp. (mould); assay: as above; format: cell-based; details: 2% emulsion, phosphate buffer pH=7.0, +37°C, Additive/ml 2512
Protocol: as §1

[8] = parameters: species or system rabbits; details: rabbit, in vivo
Protocol: Two rabbits weighing between 3.0-3.5 kg were infused intravenously (10 ml/kg body weight) with an emulsion containing 50 mg/ml of 4-methyl-3-oxo-pentanoic acid ethyl ester over a period of 5 minutes. Each rabbit received a dosage of 1.5-1.8 g over a 5 minute period. The emulsion was prepared aseptically, by emusifying sterile-filtered ester with a sterilized dispersion of egg-yolk phospholipids.
Three rabbits weighing 3.0-3.3 kg were infused intravenously (10 ml/kg body weight) with an emulsion containing 30 mg/ml of 4-methyl-3-oxo-pentanoic acid ethyl ester over a period of from 4 to 7 minutes. Each rabbit received a dosage of 0.9-1.05 g. The emulsion was prepared aseptically, by emulsifying sterile-filtered ester with a sterilized dispersion of egg-yolk phospholipids. […] The third rabbit remained normal during the whole of the infusion period. The two unconscious rabbits awakened about 2 minutes after completion of the infusion, and thereafter acted quite normally.

[9] = Cold storage of fat emulsion (Intralipid) with ester admixture: visual inspection, pH, mean particle size; format: physicochemical
[10] = tested on: VSV (vesicular stomatitis virus); format: cell-based; details: 0.1% in tissue cultures; A549, GMK and fibroblasts; Figure 2
[11] = Admixture of ester to distilled water and amino acid solution (Vamin N), 5 days at +5°C; format: physicochemical
Protocol: 6 g of egg-yolk phospholipids were dissolved in 50 g of 5-methyl-3-oxo-hexanoic acid ethyl ester and 4-methyl-3-oxo-pentanoic acid ethyl ester respectively, while applying and stirring the system. When clear solutions had been obtained, 34 g of absolute alcohol (about 99%) were added, corresponding to the least quantity required for the solutions to remain stable in cold conditions without precipitation of phospholipids. These solutions were autoclaved at +117°C for 20 minutes. Aliquots of these solutions were taken (0.2; 1.0; 3.0 and 5% calculated on ethyl ester) and added respectively to distilled water and to an amino acid solution with a concentration of 7.18% and 9.4 g nitrogen/l (Vamin^R N). Controls were run, in which a pure product of 5-methyl-3-oxo-hexanoic acid ethyl ester and 4-methyl-3-oxo-pen tanoic acidethyl ester respectively were added to distilled water and amino acid solution respectively. All samples were shaken for 10 seconds in a shaking apparatus of the type Whirlimixer^R. The samples were then permitted to stand for 5 calender days in cold conditions (+5°C) and were read-off daily under a daylight lamp, observations being made as to the acceptable quality of the resultant emulsions (visually) or to ascertain the presence or absence of oil droplets on the surface of the emulsions, or separation thereof. […]

Row | SMILES | number of microorganisms ([1]; 2 hrs) | number of microorganisms ([1]; 20 hrs) | number of microorganisms ([2]; 2 hrs) | number of microorganisms ([2]; 20 hrs) | number of microorganisms ([3]; 2 hrs) | number of microorganisms ([3]; 20 hrs) | number of microorganisms ([4]; 2 hrs) | number of microorganisms ([4]; 20 hrs) | number of microorganisms ([5]; 2 hrs) | number of microorganisms ([5]; 20 hrs) | number of microorganisms ([6]; 2 hrs) | number of microorganisms ([6]; 20 hrs) | number of microorganisms ([7]; 2 hrs) | number of microorganisms ([7]; 20 hrs) | further results
1 | CCOC(=O)CC(=O)C(C)C [4-methyl-3-oxo-pentanoic acid ethyl ester] | 3981 | 1000 | 200 | 0 | 0 | 0 | 5012 | 0 | 0 | 0 | 0 | 0 | 3981 | 0 | time after completion of the infusion until awakening [8]: about 2 minutes; time after completion of the infusion until consciousness regained [8]: about 2 minutes; emulsion quality (oil droplets, creaming, oil separation), daily inspection ([9]; Example 5: mother concentrate in Intralipid 10%, 0.3% addition, +5°C, 5 days): had no affect on the quality; pH ([9]; Example 34: 20 percent fat emulsion, 3% emulsion, end of 5-day period (reference emulsion pH=7.9)): 5.6; emulsion stability, daily visual inspection ([9]; Example 34: pure ester in 20 percent fat emulsion, 0.1% admixture, +5°C, 5 days): remained stable over the whole of the test period; emulsion stability, daily visual inspection ([9]; Example 34: pure ester in 20 percent fat emulsion, 3% admixture, +5°C, 5 days): remained stable for four days
2 | CCOC(=O)CC(=O)CC(C)C [5-methyl-3-oxo-hexanoic acid ethyl ester] | 5012 | 5012 | 1995 | 0 | 0 | 0 | 3981 | 316 | 0 | 0 | 794 | 25 | 5012 | 0 | suppression of replication of VSV [10]: replication can be inhibited; concentration to which the ester can be mixed (accepted samples) ([11]; free pure ester in amino acid solution (Vamin N)): 0.2%; concentration to which the ester can be mixed (accepted samples) ([11]; free pure ester in distilled water): 0.2%; emulsion stability, daily visual inspection ([9]; Example 33: pure ester in 20 percent emulsion, 5%, +5°C, 5 days): unstable
